From PubChem BioAssay (NCI)
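Cultured in 96-well plates, cells were exposed to test compound for 48 hours across five concentrations. At the TGI there is no net growth.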

Legend:
Assay in all cases: DTP human tumour cell line panel, 48 h
[1] = test system: HOP-62 NSCLC
[2] = test system: UACC-257 melanoma
[3] = test system: UACC-62 melanoma
[4] = test system: SK-MEL-2 melanoma
[5] = test system: MALME-3M melanoma
[6] = test system: SNB-75 CNS
[7] = test system: NCI-H226 lung
[8] = test system: DU-145 prostate
[9] = test system: SK-OV-3 ovarian
[10] = test system: OVCAR-8 ovarian
[11] = test system: PC-3 prostate
[12] = test system: SNB-19 CNS
[13] = test system: CAKI-1 renal
[14] = test system: OVCAR-5 ovarian
[15] = test system: HT29 colon
[16] = test system: NCI-H23 lung
[17] = test system: COLO 205 colon
[18] = test system: TK-10 renal
[19] = test system: SF-539 CNS

In the case of `Cc1coc2c1C(=O)C(=O)c1c-2ccc2c1CCCC2(C)C`, the TGI [1] was 12.1 µM, the TGI [2] was 2.37 µM and the TGI [3] was 3.32 µM. It also gave a TGI [4] of 6.94 µM, a TGI [5] of 2.3 µM and a TGI [6] of 16.3 µM. For the same compound, the TGI [7] was 11.2 µM, the TGI [8] was 9.9 µM and the TGI [9] was > 100 µM. The TGI [10] was > 100 µM, the TGI [11] was > 44.7 µM and the TGI [12] was 22.8 µM. It also gave a TGI [13] of 5.15 µM, a TGI [14] of 28.5 µM and a TGI [15] of 42.4 µM. For the same compound, the TGI [16] was 2.8 µM, the TGI [17] was 22.5 µM and the TGI [18] was > 85.8 µM. For the same compound, the TGI [19] was 7.59 µM.
With `COc1cc2c(cc1OC)-c1c(oc3cc(OC4OC(CO)C(O)C(O)C4O)c(OC)cc3c1=O)C(O)O2` (stereo not drawn) the TGI [1] was > 100 µM, the TGI [2] was > 100 µM and the TGI [3] was > 100 µM. The TGI [4] was > 100 µM, the TGI [5] was > 100 µM and the TGI [6] was > 100 µM. The TGI [7] was > 100 µM, the TGI [8] was > 100 µM and the TGI [9] was > 100 µM. The TGI [10] was > 100 µM, the TGI [11] was > 100 µM and the TGI [12] was > 100 µM. The TGI [13] was > 100 µM, the TGI [14] was > 100 µM and the TGI [15] was > 100 µM. For the same compound, the TGI [16] was > 100 µM, the TGI [17] was > 100 µM and the TGI [18] was > 100 µM. The TGI [19] was > 100 µM.
In the case of `C=C(C)[C@@H]1CCC2=C[C@H](OC2=O)[C@@]2(C)C[C@@H]2C(=O)/C=C(/C)C(=O)[C@H]1OC(C)=O`, the TGI [1] was 97.6 µM, the TGI [2] was 81.4 µM and the TGI [3] was > 73 µM. The TGI [4] was > 80.1 µM, the TGI [5] was 29.8 µM and the TGI [6] was > 83.5 µM. For the same compound, the TGI [7] was 58.3 µM, the TGI [8] was 21 µM and the TGI [9] was > 84.7 µM. The TGI [10] was > 68.6 µM, the TGI [11] was > 46.1 µM and the TGI [12] was > 73.7 µM. For the same compound, the TGI [13] was 42 µM, the TGI [14] was 43.9 µM and the TGI [15] was > 48.4 µM. For the same compound, the TGI [16] was > 58.5 µM, the TGI [17] was 45.3 µM and the TGI [18] was > 62.7 µM. The TGI [19] was > 33.7 µM.
`CCCNC(=O)Cn1c(C)cc2ccccc21` was tested, and the TGI [1] was > 100 µM, the TGI [2] was > 100 µM and the TGI [3] was > 100 µM. The TGI [4] was > 100 µM, the TGI [5] was > 100 µM and the TGI [6] was > 100 µM. For the same compound, the TGI [7] was > 100 µM, the TGI [8] was > 100 µM and the TGI [9] was > 100 µM. For the same compound, the TGI [10] was > 100 µM, the TGI [11] was > 100 µM and the TGI [12] was > 100 µM. For the same compound, the TGI [13] was > 100 µM, the TGI [14] was > 100 µM and the TGI [15] was > 100 µM. The TGI [16] was > 100 µM, the TGI [17] was > 100 µM and the TGI [18] was > 100 µM. For the same compound, the TGI [19] was > 100 µM.
With `CC(=O)OC[C@@]1(C)[C@@H]2[C@@H]3[C@@]4(CO[C@]3(C)C(=O)[C@@]3(O)C[C@H](C)[C@H](OC(C)=O)[C@@H]3[C@H]4OC(C)=O)[C@H](OC(=O)c3ccccc3)C[C@@H]21` the TGI [1] was > 100 µM, the TGI [2] was > 100 µM and the TGI [3] was > 100 µM. The TGI [4] was > 100 µM, the TGI [5] was > 100 µM and the TGI [6] was > 100 µM. The TGI [7] was > 100 µM, the TGI [8] was > 100 µM and the TGI [9] was > 100 µM. The TGI [10] was > 100 µM, the TGI [11] was > 100 µM and the TGI [12] was > 100 µM. The TGI [13] was > 100 µM, the TGI [14] was > 100 µM and the TGI [15] was > 100 µM. The TGI [16] was > 100 µM, the TGI [17] was > 100 µM and the TGI [18] was > 100 µM. The TGI [19] was > 100 µM.
For `COc1cc([C@H]2CC(=O)C[C@@H](c3cc(OC)c(OC)c(OC)c3)C23C(=O)c2ccccc2C3=O)cc(OC)c1OC`, the TGI [1] was > 100 µM, the TGI [2] was > 100 µM and the TGI [3] was > 100 µM. For the same compound, the TGI [4] was > 100 µM, the TGI [5] was > 100 µM and the TGI [6] was > 100 µM. For the same compound, the TGI [7] was > 100 µM, the TGI [8] was > 100 µM and the TGI [9] was > 100 µM. The TGI [10] was > 100 µM, the TGI [11] was > 100 µM and the TGI [12] was > 100 µM. The TGI [13] was > 100 µM, the TGI [14] was > 100 µM and the TGI [15] was > 100 µM. For the same compound, the TGI [16] was > 100 µM, the TGI [17] was > 100 µM and the TGI [18] was > 100 µM. The TGI [19] was > 100 µM.
`CC(C)n1c(=O)[nH]n(-c2ccccc2)c1=O` was tested, and the TGI [1] was > 100 µM, the TGI [2] was > 100 µM and the TGI [3] was > 100 µM. The TGI [4] was > 100 µM, the TGI [5] was > 100 µM and the TGI [6] was > 100 µM. For the same compound, the TGI [7] was > 100 µM, the TGI [8] was > 100 µM and the TGI [9] was > 100 µM. For the same compound, the TGI [10] was > 100 µM, the TGI [11] was > 100 µM and the TGI [12] was > 100 µM. The TGI [13] was > 100 µM, the TGI [14] was > 100 µM and the TGI [15] was > 100 µM. For the same compound, the TGI [16] was > 100 µM, the TGI [17] was > 100 µM and the TGI [18] was > 100 µM. The TGI [19] was > 100 µM.
`CC1OC(OC2C(CO)OC(O[C@H]3CC[C@@]4(C)C(=CC[C@H]5[C@@H]6C[C@@H]7O[C@](O)(CC[C@H](C)COC8OC(CO)C(O)C(O)C8O)[C@@H](C)[C@@H]7[C@@]6(C)CC[C@@H]54)C3)C(OC3OC(C)C(O)C(O)C3O)C2O)C(O)C(O)C1O` (stereo partly drawn) was tested, and the TGI [1] was 6.04 µM, the TGI [2] was > 49.9 µM and the TGI [3] was > 50.4 µM. The TGI [4] was 20 µM, the TGI [5] was 18.9 µM and the TGI [6] was 4.78 µM. For the same compound, the TGI [7] was 85 µM, the TGI [8] was 5.92 µM and the TGI [9] was 6.12 µM. The TGI [10] was 28.9 µM, the TGI [11] was 15.9 µM and the TGI [12] was 8.65 µM. For the same compound, the TGI [13] was 3.61 µM, the TGI [14] was > 49.1 µM and the TGI [15] was > 100 µM. For the same compound, the TGI [16] was 17.4 µM, the TGI [17] was > 35.5 µM and the TGI [18] was > 100 µM. The TGI [19] was > 21.6 µM.
With `O=C(Nc1sccc1S(=O)(=O)c1ccc(Cl)cc1)c1ccccc1` the TGI [1] was > 100 µM, the TGI [2] was > 100 µM and the TGI [3] was > 100 µM. The TGI [4] was > 100 µM, the TGI [5] was > 100 µM and the TGI [6] was > 100 µM. The TGI [7] was > 100 µM, the TGI [8] was > 100 µM and the TGI [9] was > 100 µM. For the same compound, the TGI [10] was > 100 µM, the TGI [11] was > 100 µM and the TGI [12] was > 100 µM. For the same compound, the TGI [13] was > 100 µM, the TGI [14] was > 100 µM and the TGI [15] was > 100 µM. For the same compound, the TGI [16] was > 100 µM, the TGI [17] was > 100 µM and the TGI [18] was > 100 µM. For the same compound, the TGI [19] was > 100 µM.
In the case of `COC(=O)C(Cc1c(C2Nc3ccccc3C2CC(NC(C)=O)C(=O)OC)[nH]c2ccccc12)NC(C)=O` (stereo not drawn), the TGI [1] was > 100 µM, the TGI [2] was > 100 µM and the TGI [3] was > 100 µM. The TGI [4] was > 100 µM, the TGI [5] was > 100 µM and the TGI [6] was > 100 µM. For the same compound, the TGI [7] was > 100 µM, the TGI [8] was > 100 µM and the TGI [9] was > 100 µM. For the same compound, the TGI [10] was > 100 µM, the TGI [11] was > 100 µM and the TGI [12] was > 100 µM. The TGI [13] was > 100 µM, the TGI [14] was > 100 µM and the TGI [15] was > 100 µM. For the same compound, the TGI [16] was > 100 µM, the TGI [17] was > 100 µM and the TGI [18] was > 100 µM. The TGI [19] was > 100 µM.
In the case of `COC(=O)c1ccc(COC(=O)N2C=CCC2C(=O)O)cc1` (stereo not drawn), the TGI [1] was > 100 µM, the TGI [2] was > 100 µM and the TGI [3] was > 100 µM. The TGI [4] was > 100 µM, the TGI [5] was > 100 µM and the TGI [6] was > 100 µM. For the same compound, the TGI [7] was > 100 µM, the TGI [8] was > 100 µM and the TGI [9] was > 100 µM. The TGI [10] was > 100 µM, the TGI [11] was > 100 µM and the TGI [12] was > 100 µM. For the same compound, the TGI [13] was > 100 µM, the TGI [14] was > 100 µM and the TGI [15] was > 100 µM. The TGI [16] was > 100 µM, the TGI [17] was > 100 µM and the TGI [18] was > 100 µM. For the same compound, the TGI [19] was > 100 µM.
In the case of `CC1(C)CCCCCCC2CC2CCCCCC(C)(C)C1=O` (stereo not drawn), the TGI [1] was > 100 µM, the TGI [2] was > 100 µM and the TGI [3] was > 100 µM. For the same compound, the TGI [4] was > 100 µM, the TGI [5] was > 100 µM and the TGI [6] was > 100 µM. The TGI [7] was > 100 µM, the TGI [8] was > 100 µM and the TGI [9] was > 100 µM. For the same compound, the TGI [10] was > 100 µM, the TGI [11] was > 100 µM and the TGI [12] was > 100 µM. The TGI [13] was > 100 µM, the TGI [14] was > 100 µM and the TGI [15] was > 100 µM. For the same compound, the TGI [16] was > 100 µM, the TGI [17] was > 100 µM and the TGI [18] was > 100 µM. For the same compound, the TGI [19] was > 100 µM.
